This data set can be described thus: in vitro. The following applies: human, hela cells.

The text below walks through data of PMC12040169 (PLOS Biology, 2025).

The structures appear in SMILES notation.

As to `O=C(NC1CC1)[C@@H]1C=CCN1S(=O)(=O)c1ccccc1Cl` [CBK285479], under “% viability”, the viability at 28.5 h, 10 µM turned out to be 103%.
The same measure, in the same setting: the same measure for `COc1ccc(C(=O)COc2nc3c(C(F)(F)F)cc(C4CC4)nc3o2)cc1` [CBK269498]: 87%.
Same read-out and setting: the same measure for `O=C(c1ccsc1)N1CCC2(CC1)CN(Cc1ccccc1)CC(c1ccccc1)O2` (stereo not shown) [CBK286438]: 94.4%.
With `Cc1c(C(N)=O)sc2nc(C(F)(F)F)cc(N)c12` [CBK061693], the viability at 28.5 h, 10 µM (% viability) came out at 97.1%.
Still for that read-out and setting: the same measure for `CN(CCN1CCCCC1)C(=O)CCc1cn(C)c2ccccc12` [CBK281906]: 94.3%; for `CN(C)C(=O)c1cc(-c2ccccc2)cnc1N(C)S(C)(=O)=O` [CBK076473]: 105%.
Regarding `Cc1noc(C)c1NC(=O)c1cccn1C` [CBK200304], the viability at 28.5 h, 10 µM (% viability) amounted to 101%.
As to `Cc1ccc(S(=O)(=O)NCCOc2ccc(Cl)cc2)cc1[N+](=O)[O-]` [CBK263268], the viability at 28.5 h, 10 µM (% viability) is 106%.
Consider `c1cncc(COc2ccnc(N3CCCN(CCN4CCOCC4)CC3)n2)c1` [CBK084122], for which, under “% viability”, the viability at 28.5 h, 10 µM was determined as 88.5%.
Still for that read-out and setting: the same measure for `O=C(c1ccccn1)N(CCc1ccccc1)c1nc2ccccc2s1` [CBK295151]: 97.5%; for `Oc1c(C(c2ccccc2)N2CCc3ccccc3C2)sc2ncnn12` (stereo not shown) [CBK287612]: 99.9%.
Regarding `CCN(CC)CCCNC=C1C(=O)NC(=O)NC1=O` [CBK262403], under “% viability, bulk resorufin, single well”, the viability at 28.5 h, 10 µM came to 94%.
For the molecule `O=C(c1ccccc1F)N1C[C@H](c2ccsc2)[C@H]2CN(Cc3cccc(F)c3)CC[C@H]21` [CBK285660], the viability at 28.5 h, 10 µM (% viability) worked out at 120%.
Regarding `O=C(O)c1ccccc1NC1SC(=O)N(c2ccccc2)C1=O` (stereo not shown) [CBK261078], the viability at 28.5 h, 10 µM (% viability) worked out at 93.7%.
Regarding `O=C(O)CCSc1nc2ccccc2n1CCOc1ccccc1` [CBK262555], the viability at 28.5 h, 10 µM (% viability) turned out to be 95.9%.
Same read-out and setting: the same measure for `Cc1ccccc1Cn1c(CN2CCN(c3ccccc3)CC2)nc2c1c(=O)n(C)c(=O)n2C` [CBK269488]: 94.6%; for `OC1(c2ccc(F)cc2)CC2CCC(C1)N2` (stereo not shown) [CBK281947]: 89.7%; for `O=C(NC1CCCCC1)c1ccccc1NC(=O)C1CCCCC1C(=O)O` (stereo not shown) [CBK267675]: 97%.
Still for that read-out and setting: the same measure for `COC(=O)c1sc2[nH]c(CN(C)Cc3ccco3)nc(=O)c2c1C` [CBK306047]: 82.6%.
The same measure, in the same setting: to `CN1CCCC(NC(=O)Cn2nc(C(F)(F)F)c3c2CCCC3)C1` (stereo not shown) [CBK282548] belongs 101%; to `COc1ccccc1CNc1ccc(S(N)(=O)=O)cc1` [CBK288476], 92.7%.
Consider `O=C(O)c1cccc2c1C(=O)N(Cc1ccc(F)cc1)C2` [CBK291183], for which, where the note is “% viability”, the viability at 28.5 h, 10 µM amounted to 87.3%.
On to `COc1c(C)cnc(CNC2CCCN(Cc3noc(C)n3)C2)c1C` (stereo not shown) [CBK305350], for which, for the setting “% viability”, the viability at 28.5 h, 10 µM was found to be 92.3%.
The same measure, in the same setting: the same measure for `Cc1nn(C)c(C)c1C(=O)Nc1sc2c(c1C#N)CCC(C)C2` (stereo not shown) [CBK304645]: 54.9%; for `O=C(NCC1CC1)c1ccc(N2CCN(C(=O)c3ccccc3C(F)(F)F)CC2)nn1` [CBK153220]: 111%.
As for `O=C(O)CC(C(=O)Nc1ccccc1)C1CCCO1` (stereo not shown) [CBK286809], the viability at 28.5 h, 10 µM (% viability) is 93%.
On to `Cc1ccc(N(CC(=O)O)S(=O)(=O)c2ccc(C)cc2)cc1` [CBK262409], for which the viability at 28.5 h, 10 µM (% viability) was determined as 106%.
In the case of `O=C(O)c1ccc(CNC(=O)c2cnc(-c3ccc(F)cc3)c(-c3ccc(O)cc3)c2)cc1` [CBK037996], the viability at 28.5 h, 10 µM (% viability) amounted to 101%.
On the same count and under the same terms, to `Nc1nc(N)nc(CSc2ncc(-c3ccccc3)n2-c2ccccc2)n1` [CBK297103] belongs 85.9%.
With `Cc1csc2c(C3CCN(C(=O)c4cccnc4)CC3)nc(C)n12` [CBK285242], under “% viability”, the viability at 28.5 h, 10 µM is 85.1%.
Same read-out and setting: the same measure for `CCn1cncc1CN1CCN(CC2(c3ccc(C)cc3)CC2)CC1` [CBK283307]: 105%; for `O=C(O)c1cc(S(=O)(=O)Nc2ccccc2)ccc1O` [CBK109969]: 83.2%; for `Cc1ccc(C(=O)NCCc2ccc(S(N)(=O)=O)cc2)c(N2CCN(C(=O)c3ccco3)CC2)n1` [CBK076345]: 89%.
On to `O=C(NC[C@H]1C[C@@H]2CC[N@]1C[C@@H]2CN1CCN(c2ncccn2)CC1)Nc1ccsc1` [CBK289117], for which, for the setting “% viability”, the viability at 28.5 h, 10 µM is 90.3%.
For `CSc1nc(C(=O)N2CCCCC2c2cccc(F)c2)cs1` (stereo not shown) [CBK306732], the viability at 28.5 h, 10 µM (% viability) came out at 108%.
On the same count and under the same terms, to `O=C(NCCC(c1ccccc1)c1ccco1)C1CCCN1` (stereo not shown) [CBK282499] belongs 85%.
On the same count and under the same terms, to `O=C(OCc1ccc(Br)cc1)c1ccccc1S(=O)(=O)c1ccccc1[N+](=O)[O-]` [CBK265718] belongs 92.2%.
The same measure, in the same setting: to `O=C(O)c1cccc(N2C(=O)C3C4C=CC(C3C2=O)C2C(=O)N(c3cccc(C(=O)O)c3)C(=O)C42)c1` (stereo not shown) [CBK261495] belongs 110%.
As to `COc1ccc2nc(C)c(CCC(=O)O)c(O)c2c1` [CBK286955], the viability at 28.5 h, 10 µM (% viability) stood at 98.8%.
As to `CCOC(=O)c1cnn(C2CCCN(c3ccc(C#N)nc3)C2)c1` (stereo not shown) [CBK306458], the viability at 28.5 h, 10 µM (% viability) is 113%.
In the case of `Cc1nn(C)cc1-c1c(C#N)c(N)nc2c1CN(Cc1ccco1)CC2` [CBK306722], the viability at 28.5 h, 10 µM (% viability) was found to be 90.4%.
For the molecule `CCn1c(=O)n(CC(=O)N(C)C)c2cccnc21` [CBK282299], the viability at 28.5 h, 10 µM (% viability) amounted to 89.1%.
Still for that read-out and setting: the same measure for `Cc1ccc(N(CC(O)CN2CCCC2)S(=O)(=O)c2ccccc2)cc1` (stereo not shown) [CBK264739]: 101%.
For `CS(=O)(=O)Nc1nccnc1OC1CCNCC1` [CBK074265T], the viability at 28.5 h, 10 µM (% viability) worked out at 90.6%.
`c1csc(CCN2CCC3(CC2)OCCc2c3[nH]c3ccccc23)c1` [CBK040156]: the viability at 28.5 h, 10 µM (% viability) came to 87.1%.
On to `Cc1nc(C)c(-c2csc(Nc3ccc(O)cc3C)n2)s1` [CBK267346], for which the viability at 28.5 h, 10 µM (% viability) amounted to 98.7%.
As to `O=C(Nc1ccccc1N1CCNCC1)C1CCC1` [CBK004755T], under “% viability”, the viability at 28.5 h, 10 µM came to 90.9%.
Still for that read-out and setting: to `Cc1ccc(C)c2c1CCCC2N1CCC(NS(C)(=O)=O)CC1` (stereo not shown) [CBK304038] belongs 103%; to `O=C(CN1CCCC2(CCN(C(=O)Cc3c[nH]c4ccccc34)C2)C1)Nc1ncccn1` (stereo not shown) [CBK132048], 86.7%; to `O=C(O)CCCC(=O)NNC(=O)c1cccc(Br)c1` [CBK263530], 99.9%.
Same read-out and setting: to `COc1cc(C)c(Nc2cc(-c3ccc(C(N)=O)cc3)ncn2)cc1OC` [CBK090784] belongs 98.9%; to `Cc1ccccc1C(=O)NCCNC(=O)c1nonc1N` [CBK267677], 103%; to `Cc1cc(CNC(=O)N(C)C2CCN(C)C2)no1` (stereo not shown) [CBK155992], 103%.
In the case of `COc1ccc(CCC(=O)N2CCC(N(C)Cc3ccc(-c4ccc(S(C)(=O)=O)cc4)nc3)CC2)cc1Cl` [CBK164102T], for the setting “% viability”, the viability at 28.5 h, 10 µM was found to be 86.6%.
Still for that read-out and setting: the same measure for `CCN(CC(=O)NCc1ccc(F)cc1)C(=O)c1ccc(C#N)cc1` [CBK305841]: 100%; for `OCCN1CCN(Cc2nc(O)c3ccccc3n2)CC1` [CBK266089]: 98.5%; for `CCOc1ccc(S(=O)(=O)Nc2ccc(C(=O)O)cc2)cc1` [CBK287171]: 89.9%.
In the case of `COc1ccc(-c2cc(N3CCCN(C)CC3)n3nccc3n2)cc1` [CBK037244], the viability at 28.5 h, 10 µM (% viability) came to 106%.
Still for that read-out and setting: to `CCCS(=O)(=O)Nc1nccnc1N1CCN(c2cnccn2)CC1` [CBK048828] belongs 85.5%.
Regarding `CC(C)c1ccc(OCC(=O)NNC(=O)c2ccco2)c(Br)c1` [CBK267224], the viability at 28.5 h, 10 µM (% viability) was found to be 86.7%.
On to `C=CCOC(=O)N1CCC(C(=O)NC(c2ccccn2)c2ccccc2C)CC1` (stereo not shown) [CBK059689], for which the viability at 28.5 h, 10 µM (% viability) was 94%.
For `COc1ccc(-c2nccnc2N2CCN(C)CC2)cc1` [CBK038012], the viability at 28.5 h, 10 µM (% viability) turned out to be 113%.
On the same count and under the same terms, to `O=c1[nH]cc(S(=O)(=O)Nc2ccccc2)c(=O)[nH]1` [CBK287703] belongs 93.5%; to `CC(=O)N1CCc2ccc(NC(=O)c3cncc(-c4ccc(C(=O)N5CCOCC5)cc4)c3)cc21` [CBK160217], 77.8%; to `CSCCC(C(=O)O)N1C(=O)C(=Cc2ccc(-c3cccc(Cl)c3)o2)SC1=S` (stereo not shown) [CBK296982], 99.3%.
On the same count and under the same terms, to `COc1ccc(CN2CCC(C(=O)NC(c3ccc(OC)nc3)c3ccccc3C)CC2)cc1` (stereo not shown) [CBK081445T] belongs 86.7%; to `O=C(NC1CCCC1)c1ccc2nccnc2c1` [CBK200217], 102%; to `CCOC(=O)N(C)c1c(CC)nc2ccc(C(=O)Nc3cc(-c4ccccc4)ccc3OC)cn12` [CBK145478], 89.6%.
The same measure, in the same setting: the same measure for `Cc1cc(C(F)(F)F)nn1CCNC(=O)c1cn2ccsc2n1` [CBK307260]: 112%; for `c1cncc(CN2CCCC(OCc3nc(-c4ccncc4)no3)C2)c1` (stereo not shown) [CBK288621]: 114%; for `CN1CCN(C(=O)c2ccsc2NS(=O)(=O)c2ccc(Oc3ccccc3)cc2)CC1` [CBK042277]: 87%.
With `O=C(Nc1ccccc1F)c1cc(Cl)sc1Cl` [CBK085969], the viability at 28.5 h, 10 µM (% viability) came to 93.3%.
Still for that read-out and setting: to `O=C(NCCCNc1c(Cl)cccc1[N+](=O)[O-])c1ccc(F)cc1` [CBK264943] belongs 99.4%.
Regarding `O=C(NCc1ccncc1)c1ncoc1-c1ccc(F)cc1` [CBK282354], the viability at 28.5 h, 10 µM (% viability) was 83.8%.
Still for that read-out and setting: the same measure for `O=C1N[C@@]2(CC3CCC2CC3C(=O)NC2CC2)Nc2ccccc21` (stereo partly shown) [CBK284454]: 85.9%.
`CC(C)CN(/C=N/c1nc(OC(=O)N(c2ccccc2)c2ccccc2)nc2c1ncn2C1CC(O)C(CO)O1)CC(C)C` (stereo not shown) [CBK201170]: the viability at 28.5 h, 10 µM was 93%.
`COc1ccc2c(c1)C1(CC(=O)N(CCC3CCCCC3)C1=O)C(=O)N2C` (stereo not shown) [CBK075147]: under “% viability”, the viability at 28.5 h, 10 µM was determined as 120%.
For the molecule `Cc1cc(Cl)ccc1OCC(=O)Nc1nnc[nH]1` [CBK287940], the viability at 28.5 h, 10 µM (% viability) is 86.3%.
For `O=C1CNC(=O)C2(C/C=C/C[C@H]3COCC[C@H]3N1)CCN(C(=O)Cc1cccnc1)CC2` [CBK292068], under “% viability”, the viability at 28.5 h, 10 µM was determined as 103%.
